Patent US20140120083A1, “TREATMENT OF CANCERS USING PI3 KINASE ISOFORM MODULATORS” (INFINITY PHARMACEUTICALS, INC., priority 2012, published 2014)
Where “and” joins values, the source holds several entries; their conditions need not be identical. Equal entries are not always repeated. Where two headings read alike, the source gives them in different places. Marks after values point to notes of the source that are not given here.

Key:
[1] = Embryo/fetal developmental toxicity, rat
[2] = Embryo/fetal developmental toxicity, rabbit
[3] = tested on: PI3K-δ and PI3K-γ; test: Phase 1 study in advanced hematologic malignancies, pharmacodynamics; format: in vivo, human
Experimental: (§1) PK and PD markers were evaluated after the first dose (e.g., 8 mg BID) and at steady state. PD activity (PI3K inhibition) in whole blood was evaluated using a basophil activation assay which measured reduction in CD63 expression on the surface of basophils following ex vivo stimulation.

[4] = Single-dose toxicity study (MTD); conditions: monkey, in vivo, po
[5] = Pharmacokinetics, mouse; format: in vivo, BALB/c mice
[6] = Clinical study in healthy adult subjects, pharmacokinetics; format: in vivo, human; conditions: for AUC(0-24) / AUC(0-inf) / Cmax / T1/2 / half-life / AUC: mean (% CV); for AUC: read-out: AUC(0-tau)
[7] = In vitro genetic toxicity studies
[8] = Plasma protein binding, human; format: in vitro ADME; conditions: 100 μM (41700 ng/mL)
Source text: […]. […] […].

[9] = Pharmacokinetics, dog; format: in vivo, Beagle dogs; conditions: for Foral: AUC0-last; for clearance / Vd / AUC(0-inf) / AUC(0-t) / Cmax / half-life / Tmax: beagle, in vivo; for Vd: read-out: Vss; for AUC(0-t): read-out: AUC0-last (AUC0-24)
[10] = tested on: Caco-2 cell monolayers; test: Membrane permeability, Caco-2 cell monolayers; format: in vitro ADME, human
[11] = tested on: TNF-α and IL-10 production; test: Cytokine production in diluted whole blood stimulated with LPS; format: cell-based; conditions: diluted whole blood (1:1), 24 hours pre-treatment, 100 μg/mL LPS
Experimental: Serum concentrations of a panel of human cytokines/chemokines were determined by Milliplex 96-well immuno-assay as described below.

[12] = Phase 1 study in advanced hematologic malignancies, pharmacokinetics; format: in vivo, human; conditions: patients
Experimental: as §1

[13] = DDI portion, 200 mg q12h ketoconazole
[14] = human, plasma, oral, 1 mg, 1 mg Q12 h, Day 1
[15] = human, plasma, oral, 1 mg, 1 mg Q12 h, Day 14
[16] = human, plasma, oral, 2 mg, 2 mg Q12 h, Day 1
[17] = human, plasma, oral, 2 mg, 2 mg Q12 h, Day 14
[18] = human, plasma, oral, 5 mg, 5 mg Q12 h, Day 1
[19] = human, plasma, oral, 5 mg, 5 mg Q12 h, Day 14
[20] = human, plasma, oral, 10 mg, 10 mg Q24 h, Day 1
[21] = human, plasma, oral, 10 mg, 10 mg Q24 h, Day 14
[22] = po, 5 mg/kg, 5 mg/kg (study with 0.5 mg/kg IV)
[23] = po, 5 mg/kg, 5 mg/kg (study with 1 mg/kg IV)

C[C@H](Nc1ncnc2[nH]cnc12)c1cc2cccc(Cl)c2c(=O)n1-c1ccccc1 [Compound 292]
NOAEL ([1]; female, rat, in vivo): 35 mg/kg/day
mean AUC0-24 hr at the NOAEL ([1]; pregnant rats, last day of dosing): 62200 ng·h/mL
maternal and fetal NOAEL ([1]; rat): 210 mg/m^2/day
NOAEL ([2]; female, rabbit, in vivo): 75 mg/kg/day
mean AUC0-24 hr at the NOAEL ([2]; pregnant rabbits, last day of dosing): 66200 ng·h/mL
maternal and fetal NOAEL ([2]; rabbit): 900 mg/m^2/day
AKT phosphorylation in CLL/SLL cells ([3]; flow cytometry, after one dose (25 mg)): rapid and sustained inhibition
doses achieving complete inhibition of PI3K-δ ([3]; patients): ≥ 15 mg BID
doses increasingly suppressing PI3K-γ ([3]; patients): ≥ 25 mg BID
MTD [4]: 500 mg/kg
half-life [5]: less than 2 hrs
AUC(0-inf) ([5]; BALB/c, in vivo, IV, 10 mg/kg): 1900 ng·h/mL
AUC(0-t) ([5]; BALB/c, in vivo, IV, 10 mg/kg): 1900 ng·h/mL
Cmax ([5]; BALB/c, in vivo, IV, 10 mg/kg): 5560 ng/mL
Tmax ([5]; BALB/c, in vivo, IV, 10 mg/kg): 4.98 min
clearance ([5]; BALB/c, in vivo, IV, 10 mg/kg): 87.5 mL/min/kg
half-life ([5]; BALB/c, in vivo, IV, 10 mg/kg, read-out: T1/2 (converted)): 0.22 h
Vd ([5]; BALB/c, in vivo, IV, 10 mg/kg, read-out: Vss): 1.14 L/kg
AUC(0-t) ([5]; BALB/c, in vivo, PO, 10 mg/kg): 137 ng·h/mL
Cmax ([5]; BALB/c, in vivo, PO, 10 mg/kg): 390 ng/mL
Tmax ([5]; BALB/c, in vivo, PO, 10 mg/kg): 4.98 min
Foral ([5]; PO, 10 mg/kg, calculated using AUC0-last): 7% and 7^i %
AUC(0-24) ([6]; 1 mg single dose): 149 (67) ng * hr/mL
AUC(0-inf) ([6]; 1 mg single dose): 151 (68) ng * hr/mL
Cmax ([6]; 1 mg single dose): 43.4 (31) ng/mL
T1/2 ([6]; 1 mg single dose): 3.52 (29) hr
AUC(0-24) ([6]; 2 mg single dose): 289 (43) ng * hr/mL
AUC(0-inf) ([6]; 2 mg single dose): 296 (44) ng * hr/mL
Cmax ([6]; 2 mg single dose): 78.8 (16) ng/mL
T1/2 ([6]; 2 mg single dose): 5.43 (25) hr
AUC(0-24) ([6]; 5 mg single dose): 733 (5) ng * hr/mL
AUC(0-inf) ([6]; 5 mg single dose): 743 (5) ng * hr/mL
Cmax ([6]; 5 mg single dose): 246 (16) ng/mL
T1/2 ([6]; 5 mg single dose): 5.43 (10) hr
AUC(0-24) ([6]; 10 mg single dose): 891 (14) ng * hr/mL
AUC(0-inf) ([6]; 10 mg single dose): 914 (14) ng * hr/mL
Cmax ([6]; 10 mg single dose): 454 (40) ng/mL
T1/2 ([6]; 10 mg single dose): 9.47 (38) hr
AUC(0-24) ([6]; 20 mg single dose): 2193 (16) ng * hr/mL
AUC(0-inf) ([6]; 20 mg single dose): 2250 (16) ng * hr/mL
Cmax ([6]; 20 mg single dose): 997 (32) ng/mL
T1/2 ([6]; 20 mg single dose): 7.79 (51) hr
AUC(0-24) ([6]; 30 mg single dose): 3263 (38) ng * hr/mL
AUC(0-inf) ([6]; 30 mg single dose): 3395 (38) ng * hr/mL
Cmax ([6]; 30 mg single dose): 1140 (38) ng/mL
T1/2 ([6]; 30 mg single dose): 8.12 (18) hr
increase of AUC0-inf in the presence of ketoconazole [6, 13]: ~295%
increase of AUC0-last in the presence of ketoconazole [6, 13]: ~285%
increase of Cmax in the presence of ketoconazole [6, 13]: approximately 66%
excretion of unchanged compound in urine ([6]; healthy subjects): < 2 % of the administered dose
accumulation ([6]; healthy subjects, 14 days of Q12 h oral administration): less than 2 fold
half-life [6, 14]: 3.46 h
AUC [6, 14]: 124 ng·h/mL
Cmax ([6]; human, plasma, oral, 1 mg, 1 mg Q12 h, Day 1, read-out: Cmax): 49.1 ng/mL
half-life [6, 15]: 6.46 h
AUC [6, 15]: 199 ng·h/mL
Cmax ([6]; human, plasma, oral, 1 mg, 1 mg Q12 h, Day 14, read-out: Cmax): 66.8 ng/mL
half-life [6, 16]: 6.34 h
AUC [6, 16]: 290 ng·h/mL
Cmax ([6]; human, plasma, oral, 2 mg, 2 mg Q12 h, Day 1, read-out: Cmax): 101 ng/mL
half-life [6, 17]: 9.75 h
AUC [6, 17]: 524 ng·h/mL
Cmax ([6]; human, plasma, oral, 2 mg, 2 mg Q12 h, Day 14, read-out: Cmax): 140 ng/mL
half-life [6, 18]: 5.76 h
AUC [6, 18]: 774 ng·h/mL
Cmax ([6]; human, plasma, oral, 5 mg, 5 mg Q12 h, Day 1, read-out: Cmax): 257 ng/mL
half-life [6, 19]: 8.32 h
AUC [6, 19]: 1290 ng·h/mL
Cmax ([6]; human, plasma, oral, 5 mg, 5 mg Q12 h, Day 14, read-out: Cmax): 355 ng/mL
half-life [6, 20]: 6 h
AUC [6, 20]: 1530 ng·h/mL
Cmax ([6]; human, plasma, oral, 10 mg, 10 mg Q24 h, Day 1, read-out: Cmax): 553 ng/mL
half-life [6, 21]: 11.7 h
AUC [6, 21]: 2230 ng·h/mL
Cmax ([6]; human, plasma, oral, 10 mg, 10 mg Q24 h, Day 14, read-out: Cmax): 605 ng/mL
AUC(0-t) ([6]; human, plasma, healthy subjects, 5 mg BID, 14 days of oral dosing, read-out: mean AUC0-24 hr): 2580 ng·h/mL
genetic toxicity [7]: no genetic toxicity
protein bound [8]: 85.9%
Foral ([9]; PO, 5 mg/kg, 0.5 mg/kg IV dose as reference): 97^g,i %
Foral ([9]; PO, 5 mg/kg, 1 mg/kg IV dose as reference): 40% and 40^h,i %
clearance ([9]; IV, 0.5 mg/kg): 0.85 mL/min/kg
Vd ([9]; IV, 0.5 mg/kg): 0.13 L/kg
clearance ([9]; IV, 1 mg/kg): 3.23 mL/min/kg
Vd ([9]; IV, 1 mg/kg): 0.493 L/kg
AUC(0-inf) ([9]; iv, 0.5 mg/kg): 11900 ng·h/mL
AUC(0-t) ([9]; iv, 0.5 mg/kg, IV, 0.5 mg/kg): 11700 ng·h/mL
Cmax ([9]; iv, 0.5 mg/kg, IV, 0.5 mg/kg, read-out: Cmax (reported value is C0)): 4410 ng/mL
half-life ([9]; iv, 0.5 mg/kg, IV, 0.5 mg/kg, read-out: T1/2 (converted)): 2 h
AUC(0-inf) ([9]; iv, 1 mg/kg): 6270 ng·h/mL
AUC(0-t) ([9]; iv, 1 mg/kg, IV, 1 mg/kg): 5880 ng·h/mL
Cmax ([9]; iv, 1 mg/kg, IV, 1 mg/kg, read-out: Cmax (reported value is C0)): 1800 ng/mL
half-life ([9]; iv, 1 mg/kg, IV, 1 mg/kg, read-out: T1/2 (converted)): 1.83 h
AUC(0-inf) [9, 22]: 107000 ng·h/mL
Tmax [9, 22]: 3 h
AUC(0-inf) [9, 23]: 13800 ng·h/mL
Tmax [9, 23]: 1.33 h
AUC(0-t) ([9]; po, 5 mg/kg, PO, 5 mg/kg (study with 0.5 mg/kg IV)): 105000 ng·h/mL
Cmax ([9]; po, 5 mg/kg, PO, 5 mg/kg (study with 0.5 mg/kg IV), read-out: Cmax): 9600 ng/mL
half-life ([9]; po, 5 mg/kg, PO, 5 mg/kg (study with 0.5 mg/kg IV), read-out: T1/2 (converted)): 3.9 h
AUC(0-t) ([9]; po, 5 mg/kg, PO, 5 mg/kg (study with 1 mg/kg IV)): 10900 ng·h/mL
Cmax ([9]; po, 5 mg/kg, PO, 5 mg/kg (study with 1 mg/kg IV), read-out: Cmax): 2370 ng/mL
half-life ([9]; po, 5 mg/kg, PO, 5 mg/kg (study with 1 mg/kg IV), read-out: T1/2 (converted)): 3.15 h
half-life ([9]; read-out: half-life (converted)): 2 h
cell membrane permeability [10]: moderate
IL-10 production [11]: inhibition
TNF-α production [11]: inhibition
half-life ([12]; human, in vivo, oral, read-out: eliminating t1/2): 6 to 10 h
doses with mean steady-state trough above levels sufficient for PI3K-δ inhibition [12]: > 15 mg BID
plasma Cmax and AUC over the dose range ([12]; 8-50 mg BID): dose-proportional increases
PK profile ([12]; through 50 mg BID): linear
